Measurements reported in patent US8906825B2, “Herbicidal compositions comprising 4-amino-3-chloro-5-fluoro-6-(4-chloro-2-fluoro-3-methoxyphenyl) pyridine-2-carboxylic acid or a derivative thereof and triazolopyrimidine sulfonamides” (Dow AgroSciences LLC, priority 2012, dated 2014).

What was measured:
Type in all cases: in vivo
[1] = test system: CYPDI (Cyperus difformis L., smallflower umbrella sedge); assay: Postemergence field trials in direct-seeded rice, Greece and Italy (Example IV); settings: foliar
Method: (§1) Multiple post-emergence field trials were conducted under field conditions in Tolima, Colombia; Thessaloniki, Greece; Ottobiano and Copiano, Italy; Greenville, Miss. and Eagle Lake, Tex., USA; and water-injected treatments were tested at Ryugasaki, Japan. Trial sites were located in commercially grown fields of direct-seeded rice (Oryza sativa) using standard herbicide small plot research methodology, except in Japan where transplanted rice was utilized for the field trial. Post-emergence trial plot size varied from 2 to 3 meter (m)×5 to 8 m (width×length) with 4 replicates per treatment. Water-injected trial plot size was 2×2 m with 3 replicates per treatment. The rice crop was grown using normal cultural practices for fertilization, seeding, watering, flooding and maintenance to ensure good growth of the crop and the weeds.
(§2) All treatments in the post-emergence field trials were applied using a backpack compressed air/gas sprayer with flat fan nozzles (80° or 110°) calibrated to apply 187 to 300 L/ha spray volume at approximately 200-400 kPa nozzle pressure. In Japan, treatments were water-injected applied where the specified amount of commercial product was mixed in 100 mls of water per replicate and applied directly into 3 cm deep water containing the crop and weeds. Treatments consisted of the benzyl ester of 4-amino-3-chloro-5-fluoro-6-(4-chloro-2-fluoro-3-methoxy-phenyl)pyridine-2-carboxylic acid (Compound A), formulated as an SC (suspension concentrate), and various herbicidal components alone and in combination.
(§3) Commercially available products of penoxsulam (Viper 20OD® (Europe), Grasp 240SC® (USA), and Wideattack 37.5SC® (Japan)) were mixed in water at appropriate formulated product rates to achieve the desired rates based on a unit area of application (hectare) to achieve the desired rates as shown. Treatments were rated at 15 to 56 days after application (DAA) as compared to the untreated control plants. Visual weed control was scored on a scale of 0 to 100 percent where 0 corresponds to no injury and 100 corresponds to complete kill.
(§4) All treatment results, both for the single product and mixtures, are an average of 3 to 4 replicates. The trial sites had naturally occurring populations of weeds. The weed spectrum included, but was not limited to, broadleaf signalgrass (Brachiaria platyphylla (Griseb.) Nash or Urochloa platyphylla (Nash) R.D. Webster, BRAPP), smallflower umbrellaplant (Cyperus difformis L., CYPDI), yellow nutsedge (Cyperus esculentus L., CYPES), multiple Echinochloa species in the same field (ECHSS) in Italy (mixed ECHSS biotypes), Amazon sprangletop (Leptochloa panicoides (J. Presl) A.S. Hitchc., LEFPA), and Japanese bulrush (Schoenoplectus juncoides (Roxb.) Palla, SCPJU).

ECHSS (Echinochloa spp.) = assay: as above; settings: foliar
Method: as §1, §2, §3, §4

[2] = test system: CYPES (Cyperus esculentus L., yellow nutsedge); assay: as above; settings: foliar
Method: as §1, §2, §3, §4

[3] = test system: SCPJU (Schoenoplectus juncoides Roxb., Japanese bulrush); assay: Water-injected field trial in transplanted rice, Japan (Example IV)
Method: as §1, §2
as §3, with “kill. […]” for “kill.”

[4] = test system: LEFPA (Leptochloa panicoides(Presl.) Hitchc., Amazon sprangletop); assay: Postemergence field trials in direct-seeded rice, United States (Example IV); settings: foliar
Method: as §1, §2, §3, §4

[5] = test system: LEFCH (Leptochloa chinensis (L.) Nees, Chinese sprangletop); assay: In-water applied herbicidal mixtures, transplanted paddy rice, greenhouse (Example II)
Method: (§5) Weed seeds or nutlets of the desired test plant species were planted in puddled soil (mud) prepared by mixing a shredded, non-sterilized mineral soil (50.5 percent silt, 25.5 percent clay, and 24 percent sand, with a pH of about 7.6 and an organic matter content of about 2.9 percent) and water at a 1:1 volumetric ratio. The prepared mud was dispensed in 365 mL aliquots into 16-ounce (oz.) non-perforated plastic pots with a surface area of 86.59 square centimeters (cm^2) leaving a headspace of 3 centimeters in each pot. Mud was allowed to dry overnight prior to planting or transplanting. Rice seeds were planted in Sun Gro MetroMix® 306 planting mixture, which typically has a pH of 6.0 to 6.8 and an organic matter content of about 30 percent, in plastic plug trays. Seedlings at the second or third leaf stage of growth were transplanted into 840 mL of mud contained in 32-oz. non-perforated plastic pots with a surface area of 86.59 cm^2 4 days prior to herbicide application. The paddy was created by filling the headspace of the pots with 2.5 to 3 cm of water. When required to ensure good germination and healthy plants, a fungicide treatment and/or other chemical or physical treatment was applied. The plants were grown for 4-22 days in a greenhouse with an approximate 14 h photoperiod which was maintained at about 29′C during the day and about 26° C. during the night. Nutrients were added as Osmocote® (19:6:12, N:P:K+minor nutrients) at 2 g per 16-oz. pot and 4 g per 32-oz. pot. Water was added on a regular basis to maintain the paddy flood, and supplemental lighting was provided with overhead metal halide 1000-Watt lamps as necessary. The plants were employed for testing when they reached the first through fourth true leaf stage.
(§6) Treatments consisted of the acid or esters of 4-amino-3-chloro-5-fluoro-6-(4-chloro-2-fluoro-3-methoxy-phenyl)pyridine-2-carboxylic acid (compound A) each formulated as an SC and various herbicidal components alone and in combination. Forms of compound A were applied on an acid equivalent basis.
(§7) Other herbicidal components were applied on an active ingredient basis and included acetolactate synthase (ALS)-inhibiting herbicides (sulfonamide chemical class) penoxsulam formulated as Grasp® SC (GF-443), diclosulam formulated as Strongarm®, and cloransulam-methyl formulated as FirstRate®.
(§8) Treatment requirements for each compound or herbicidal component were calculated based upon the rates being tested, the concentration of active ingredient or acid equivalent in the formulation, an application volume of 2 mL per component per pot, and an application area of 86.59 cm^2 per pot.
(§9) For formulated compounds, a measured amount was placed in an individual 100 or 200 mL glass vial and was dissolved in a volume of 1.25% (v/v) Agri-Dex® crop oil concentrate to obtain each application solution.
(§10) Applications were made by injecting with a pipetter appropriate amounts of the application solutions, individually and sequentially, into the aqueous layer of the paddy. Control plants were treated in the same manner with the solvent blank. Applications were made so that all treated plant material received the same concentrations of acetone and crop oil concentrate.
(§11) The treated plants and control plants were placed in a greenhouse as described above and water was added as needed to maintain a paddy flood. After approximately 3 weeks the condition of the test plants as compared with that of the untreated plants was determined visually and scored on a scale of 0 to 100 percent where 0 corresponds to no injury or growth inhibition and 100 corresponds to complete kill.
(§12) Colby's equation was used to determine the herbicidal effects expected from the mixtures (Colby, S. R. 1967. Calculation of the synergistic and antagonistic response of herbicide combinations. Weeds 15:20-22.).
(§13) The following equation was used to calculate the expected activity of mixtures containing two active ingredients, A and B: Expected=A+B−(A×B/100)

SCPMA (sea clubrush) = assay: as above
Method: as §5, §6, §7, §8, §9, §10, §11, §12, §13

[6] = Compound A Benzyl Ester 24 gae/ha

COc1c(Cl)ccc(-c2nc(C(=O)OCc3ccccc3)c(Cl)c(N)c2F)c1F [Compound A Benzyl Ester, benzyl ester of 4-amino-3-chloro-5-fluoro-6-(4-chloro-2-fluoro-3-methoxy-phenyl)pyridine-2-carboxylic acid]
Visual Weed Control (%) - 54-56 DAA CYPDI Obs [1, 6]: 81%
Visual Weed Control (%) - 54-56 DAA ECHSS Obs (ECHSS (Echinochloa spp.); [6]): 40%
Visual Weed Control (%) - 54-56 DAA CYPES Obs [2, 6]: 15%
Visual Weed Control (%) - 28 DAA SCPJU Obs ([3]; Compound A Benzyl Ester 150 gae/ha): 22%
Visual Weed Control (%) - 28 DAA SCPJU Obs ([3]; Compound A Benzyl Ester 200 gae/ha): 25%
Visual Weed Control (%) - 15-19 DAA LEFPA Obs [4, 6]: 53%
Visual Weed Control (%) - 25 DAA LEFCH Obs ([5]; Compound A Benzyl Ester 8.75 gae/ha): 50%
Visual Weed Control (%) - 25 DAA LEFCH Obs ([5]; Compound A Benzyl Ester 17.5 gae/ha): 90%
Visual Weed Control (%) - 21 DAA SCPMA Obs (SCPMA (sea clubrush); Compound A Benzyl Ester 48 gae/ha): 0%
Visual Weed Control (%) - 21 DAA SCPMA Obs (SCPMA (sea clubrush); Compound A Benzyl Ester 96 gae/ha): 0%

COc1cnc(OC)n2nc(NS(=O)(=O)c3c(OCC(F)F)cccc3C(F)(F)F)nc12 [Penoxsulam, 2-(2,2-difluoroethoxy)-N-(5,8-dimethoxy[1,2,4]triazolo[1,5-c]pyrimidin-2-yl)-6-(trifluoromethyl)benzenesulfonamide, reference compound]
Visual Weed Control (%) - 54-56 DAA CYPDI Obs ([1]; Penoxsulam 40 gai/ha): 0%
Visual Weed Control (%) - 54-56 DAA ECHSS Obs (ECHSS (Echinochloa spp.); Penoxsulam 40 gai/ha): 50%
Visual Weed Control (%) - 54-56 DAA CYPES Obs ([2]; Penoxsulam 40 gai/ha): 55%
Visual Weed Control (%) - 28 DAA SCPJU Obs ([3]; Penoxsulam 50 gai/ha): 20%
Visual Weed Control (%) - 15-19 DAA LEFPA Obs ([4]; Penoxsulam 40 gai/ha): 16%
Visual Weed Control (%) - 25 DAA LEFCH Obs ([5]; Penoxsulam 17.5 gai/ha, Table 11): 0%
Visual Weed Control (%) - 25 DAA LEFCH Obs ([5]; Penoxsulam 35 gai/ha, Table 10): 40%
Visual Weed Control (%) - 25 DAA LEFCH Obs ([5]; Penoxsulam 35 gai/ha, Table 11): 40%
Visual Weed Control (%) - 21 DAA SCPMA Obs (SCPMA (sea clubrush); Penoxsulam 10 gai/ha): 70%
Visual Weed Control (%) - 21 DAA SCPMA Obs (SCPMA (sea clubrush); Penoxsulam 20 gai/ha): 88%
Visual Weed Control (%) - 21 DAA SCPMA Obs (SCPMA (sea clubrush); Penoxsulam 40 gai/ha): 95%
